According to the NIST ThermoML archive (doi:10.1016/j.fluid.2008.06.022):

Conditions: Liquid

CCCOCC(C)O (centres undefined) [1-propoxy-2-propanol]
Conditions | vapor or sublimation pressure [kPa]
298.15 K | 0.341
303.15 K | 0.481
308.15 K | 0.672
313.15 K | 0.937
318.15 K | 1.271
323.15 K | 1.707
328.15 K | 2.256
333.15 K | 2.967
338.15 K | 3.839
343.15 K | 4.951
348.15 K | 6.29
353.15 K | 7.963
358.15 K | 9.95
363.15 K | 12.38
368.15 K | 15.27
373.15 K | 18.7
378.15 K | 22.65
383.15 K | 27.42
388.15 K | 32.8
393.15 K | 39.18
398.15 K | 46.38
403.15 K | 54.75
408.15 K | 64.1
413.15 K | 74.98
